Test results from publication PMC6268888, “Novel Coumarin Derivatives Containing 1,2,4-Triazole, 4,5-Dicyanoimidazole and Purine Moieties: Synthesis and Evaluation of Their Cytostatic Activity” (Molecules, 2012).
“And” between values parts separate entries of the source, which are not always exact repeats. Equal values may be shown once. Read-outs that look alike come from different tables or passages of the source.

How the values were obtained:
[1] = system: HeLa (cervical carcinoma); assay: MTT proliferation assay, HeLa cells; format: cell-based, human; conditions: 72 h, read-out: IC50 (50% growth inhibition) HeLa
Experimental: (§1) This study was set out to examine the anti-proliferative effects of coumarin derivates (3–18) on human tumor cell lines and normal (diploid) human fibroblasts.
(§2) Cell culturing: Human cell lines HeLa (cervical carcinoma), SW620 (colorectal adenocarcinoma, metastatic), MCF-7 (breast epithelial adenocarcinoma, metastatic), HepG2 (hepatocellular carcinoma) and BJ (normal diploid human fibroblasts) were cultured as monolayers and maintained in Dulbecco’s modified Eagle medium (DMEM) supplemented with 10% fetal bovine serum (FBS), 2 mM L-glutamine, 100 U/mL penicillin and 100 μg/mL streptomycin in a humidified atmosphere with 5% CO2 at 37 °C.
(§3) Proliferation assay: The cell lines were inoculated into a series of standard 96-well microtiter plates on day 0 at seeding density of 3,000–6,000 cells per well depending upon their specific doubling times. Freshly prepared dilutions of test compounds in culture medium in the concentration range 1 × 10^−8–1 × 10^−4 M were added to the microtiter plates, and the cells were grown for further 72 h. The solvent (DMSO) was also tested for its potential inhibitory activity by adjusting its concentration to the values used for the preparation of the working concentrations (DMSO concentration never exceeded 0.1%). After 72 h of incubation, the cell growth rate was evaluated by performing the MTT assay: experimentally determined absorbance values were transformed into the cell percentage growth (PG) using the formulas proposed by NIH and described previously. This method directly relies on control cells behaving normally at the day of assay commencement because it compares the growth of treated cells with that of untreated cells in control wells on the same plate. The results are therefore a percentile difference from the calculated expected value. […] If, however, all of the tested concentrations produce PGs exceeding the respective reference level of effect (e.g., PG value of 50) for a given cell line, the highest tested concentration is assigned as the default value (in the screening data report that default value is preceded by a “>” sign). Each test point was performed in quadruplicate in three individual experiments. The results were statistically analyzed (ANOVA, Tukey post-hoc test at p < 0.05).

[2] = system: MCF-7 (breast epithelial adenocarcinoma, metastatic); assay: MTT proliferation assay, MCF-7 cells; format: cell-based, human; conditions: read-out: IC50 (50% growth inhibition) MCF-7
Experimental: as §1, §2, §3

[3] = system: HepG2 (hepatocellular carcinoma); assay: MTT proliferation assay, HepG2 cells; format: cell-based, human; conditions: 72 h, read-out: IC50 (50% growth inhibition) HepG2
Experimental: as §1, §2, §3

[4] = system: SW620 (colorectal adenocarcinoma, metastatic); assay: MTT proliferation assay, SW620 cells; format: cell-based, human; conditions: read-out: IC50 (50% growth inhibition) SW620
Experimental: as §1, §2, §3

[5] = system: BJ (normal diploid human fibroblasts); assay: MTT proliferation assay, BJ normal fibroblasts; format: cell-based; conditions: 72 h, read-out: IC50 (50% growth inhibition) BJ
Experimental: as §1, §2, §3

Row | Compound | IC50 ([1]; Homo sapiens, HeLa) | IC50 ([2]; Homo sapiens, MCF7, 72 h) | IC50 ([3]; Homo sapiens) | IC50 ([4]; Homo sapiens, SW-620, 72 h) | IC50 ([5]; Homo sapiens, Fibroblast) | IC50 [1] | IC50 ([2]; 72 h) | IC50 [3] | IC50 ([4]; 72 h) | IC50 [5] | melting point
1 | COc1ccc(C(CCO)Cn2cncn2)c(O)c1 (stereo not drawn) [Compound 16, 1-(4-hydroxy-2-(2-hydroxy-4-methoxyphenyl)butyl)-1,2,4-triazole] | > 100 µM | > 100 µM | > 100 µM | > 100 µM | > 100 µM | – | – | – | – | – | –
2 | 1-((7-Methoxy-2-oxo-2H-chromen-4-yl)methyl)guanine [Compound 13] | – | – | – | – | – | > 100 µM | > 100 µM | > 100 µM | > 100 µM | > 100 µM | –
3 | COc1ccc2c(Cn3cnc(C(N)=O)n3)cc(=O)oc2c1 [Compound 6, 1-((7-Methoxy-2-oxo-2H-chromen-4-yl)methyl)-1,2,4-triazole-3-carboxamide] | 35 µM | > 100 µM | > 100 µM | > 100 µM | > 100 µM | 35.5 ± 13.5 µM | – | – | – | – | –
4 | 1-((7-Hydroxy-2-oxo-2H-chromen-4-yl)methyl)-6-chloropurine [Compound 8] | – | – | – | – | – | > 100 µM | > 100 µM | > 100 µM | > 100 µM | > 100 µM | –
5 | COC(=O)c1ncn(Cc2cc(=O)oc3cc(OC)ccc23)n1 [Compound 5, Methyl 1-((7-Methoxy-2-oxo-2H-chromen-4-yl)methyl)-1,2,4-triazole-3-carboxylate] | > 100 µM | > 100 µM | > 100 µM | > 100 µM | > 100 µM | – | – | – | – | – | 234 to 237 °C
6 | 1-((7-Methoxy-2-oxo-2H-chromen-4-yl)methyl)-2-amino-6-chloropurine [Compound 12] | – | – | – | – | – | > 100 µM | > 100 µM | > 100 µM | > 100 µM | > 100 µM | –
7 | 1-((7-Hydroxy-2-oxo-2H-chromen-4-yl)methyl)-2-aminopurine [Compound 11] | – | – | – | – | – | > 100 µM | > 100 µM | > 100 µM | > 100 µM | > 100 µM | –
8 | 1-((7-Hydroxy-2-oxo-2H-chromen-4-yl)methyl)purine [Compound 9] | – | – | – | – | – | > 100 µM | > 100 µM | > 100 µM | > 100 µM | > 100 µM | –
9 | 1-(4-Hydroxy-2-(2-hydroxy-4-methoxyphenyl)butyl)guanine [Compound 18] | – | – | – | – | – | > 100 µM | > 100 µM | > 100 µM | > 100 µM | > 100 µM | –
10 | 1-((7-Hydroxy-2-oxo-2H-chromen-4-yl)methyl)-2-amino-6-chloropurine [Compound 10] | – | – | – | – | – | 34 ± 8.4 µM | > 100 µM | 25 µM and 25.6 µM | 35 µM and 35.4 µM | > 100 µM | –
11 | COc1ccc(C(CCO)Cn2cnc(C(N)=O)n2)c(O)c1 (stereo not drawn) [Compound 15, 1-(4-Hydroxy-2-(2-hydroxy-4-methoxyphenyl)butyl)-1,2,4-triazole-3-carboxamide] | > 100 µM | > 100 µM | > 100 µM | > 100 µM | > 100 µM | – | – | – | – | – | –
12 | COC(=O)c1ncn(Cc2cc(=O)oc3cc(O)ccc23)n1 [Compound 3, Methyl 1-((7-hydroxy-2-oxo-2H-chromen-4-yl)methyl)-1,2,4-triazole-3-carboxylate] | > 100 µM | > 100 µM | > 100 µM | > 100 µM | > 100 µM | – | – | – | – | – | 216 to 218 °C
13 | NC(=O)c1ncn(Cc2cc(=O)oc3cc(O)ccc23)n1 [Compound 4, 1-((7-Hydroxy-2-oxo-2H-chromen-4-yl)methyl)-1,2,4-triazole-3-carboxamide] | > 100 µM | > 100 µM | > 100 µM | > 100 µM | > 100 µM | – | – | – | – | – | –
14 | N#Cc1ncn(Cc2cc(=O)oc3cc(O)ccc23)c1C#N [Compound 7, 1-((7-Hydroxy-2-oxo-2H-chromen-4-yl)methyl)-4,5-dicyanoimidazole] | > 100 µM | > 100 µM | > 100 µM | > 100 µM | > 100 µM | – | – | – | – | – | 238 to 240 °C
15 | CCOC(=O)c1ncn(CC(CCO)c2ccc(OC)cc2O)n1 (stereo not drawn) [Compound 14, Ethyl 1-(4-hydroxy-2-(2-hydroxy-4-methoxyphenyl)butyl)-1,2,4-triazole-3-carboxylate] | > 100 µM | > 100 µM | > 100 µM | > 100 µM | > 100 µM | – | – | – | – | – | –
16 | COc1ccc(C(CCO)Cn2cnc(CO)n2)c(O)c1 (stereo not drawn) [Compound 17, ethyl 1-(4-hydroxy-2-(2-hydroxy-4-methoxyphenyl)butyl)-1,2,4-triazole-3-hydroxymethyl] | > 100 µM | > 100 µM | > 100 µM | > 100 µM | > 100 µM | – | – | – | – | – | –
